The source of these data is EP0833899B1, “CIS-9,10-OCTADECENOAMIDASE” (THE SCRIPPS RESEARCH INSTITUTE, priority 1995, dated 1996).

One test relates to rats. Briefly: effect on spontaneous behavior (sleep induction) after ip injection. In kind it is in vivo. The method, then:
Synthetic cis-9,10-octadecenoamide was injected (ip) into rats in order to test its effect on spontaneous behavior at different doses: 1 (n=2), 2 (n=2), 5 (n=7), 10 (n=10), 20 (n=2), and 50 (n=2) mg, where n = number of rats tested. […] However, at a threshold of 5 mg and above there was a marked effect consisting of an induction of long-lasting motor quiescence associated with eyes closed, sedated behavior characteristic of normal sleep. Also as with normal sleep, the rats still responded to auditory stimuli with orienting reflex and sustained attention toward the source of stimulation. In addition, motor behavior was impaired. The latency to behavioral sedation following administration was about 4 minutes and subjects were normally active again after 1 hour (5 mg), 2 hour (10 mg), or 2.5 hour (20 mg and 50 mg).
(§1) We have compared cis-9,10-octadecenoamide to vehicle and the synthetic analogs listed in Figure 1 to estimate the structural specificity of its sleep-inducing potential. […] More particularly, male Sprague-Dawley rats (300 g at the time of surgery) were implanted under halothane anesthesia (2-3%) with a standard set of electrodes for sleep recordings. This included two screw electrodes placed in the parietal bone over the hippocampus to record the subjects electroencephalogram (EEG) and two wire electrodes inserted in the neck musculature to record postural tone through electromyographic activity (EMG). Rats were housed individually with at libitum access to food and water. The dark-light cycle was controlled (12:12, lights on a 10:00 p.m.). One week after the surgery, rats were habituated to the recording conditions for at least three days. Upon the completion of the habituation period, rats received 2 milliliter (ip) of either: vehicle (5% ethanol/saline solution), cis-9,10-octadecenoamide (10 mg), or oleic acid (10 mg). […] Sleep recordings were visually scored and four stages were determined: wakefulness, slow-wave-sleep 1 (SWS1), slow-wave-sleep 2 (SWS2), and rapid eye movement (REM) sleep.

In the next test the test system is male Sprague-Dawley rats. Put plainly: polysomnographic sleep recordings (EEG/EMG) after ip injection. The format is in vivo. To be noted: 10 mg ip, compared to vehicle controls, recorded four hours.
Source text: as §1
These increases with respect to slow wave sleep (SWS) were at the expense of waking.

The target in test [1] is T1, amidase activity which catalyzes both the hydrolysis and synthesis of arachidonylethanolamide (anandamide), membrane subcellular fractions from neuroblastoma, g (Rattus norvegicus, UniProt P97612).
T1 sequence (P97612 1-579): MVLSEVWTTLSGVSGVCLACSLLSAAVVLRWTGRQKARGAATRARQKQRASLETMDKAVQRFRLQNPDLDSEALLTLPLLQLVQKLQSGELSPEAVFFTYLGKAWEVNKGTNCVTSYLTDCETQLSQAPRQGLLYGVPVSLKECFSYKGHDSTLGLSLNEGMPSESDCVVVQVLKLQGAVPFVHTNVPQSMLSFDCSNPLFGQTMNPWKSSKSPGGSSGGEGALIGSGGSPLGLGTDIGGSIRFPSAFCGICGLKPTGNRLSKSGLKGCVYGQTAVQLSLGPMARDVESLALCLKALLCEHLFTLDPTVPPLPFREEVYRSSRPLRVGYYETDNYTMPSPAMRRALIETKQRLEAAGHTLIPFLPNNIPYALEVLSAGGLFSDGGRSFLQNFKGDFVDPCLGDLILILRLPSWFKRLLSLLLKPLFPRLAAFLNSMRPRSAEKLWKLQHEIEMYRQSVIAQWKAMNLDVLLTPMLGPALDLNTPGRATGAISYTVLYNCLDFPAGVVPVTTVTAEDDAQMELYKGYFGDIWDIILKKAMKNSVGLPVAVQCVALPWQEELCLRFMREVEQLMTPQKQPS
To be noted: 1.5 mM concentration; cited from earlier work.

Test [2] concerns the target T2, cis-9,10-octadecenoamidase, rat brain membrane fraction (Rattus norvegicus, UniProt P97612).
T2 sequence (P97612 1-579): T1 sequence (P97612 1-579)
The format is biochemical. To be noted: 1 mM inhibitor, 1000 µM. The procedure:
In each case the enzymic reaction is performed is a separate reaction vessel and the product is spotted onto a TLC plate.
The following protocol is used for assaying cis-9,10-octadecenoamide hydrolysis activity: To […] of 125 mM Tris·HCl, pH 9.0 was added successively 70 mL protein fraction (1 mg/mL protein concentration for brain membrane fraction, 2 mg/mL for brain soluble fraction, 5 mg/mL for pancreatic microsomal preparation), 6 mL of ethanol, and 4 mL of ^14C-cis-9,10-octadecenoamide (in ethanol, 0.25 mCi/mL). Each reaction mixture is incubated for 4 hours at 37°C and then partitioned between EtOAc and 0.07 M HCl. The EtOAc layer is evaporated to dryness and the remaining residue is dissolved in 15 mL ethanol. TLC fractions are taken from this ethanol stock. TLC plates are treated with EN^3HANCE spray and developed at -78°C for 2 hours.

Where two headings read alike, the source gives them in different places.

`CCCCCCCCC/C=C\CCCCCCC(N)=O` [Compound 3, Cis-8,9-octadecenoamide]: the “pharmacological effects compared with cis-9,10-octadecenoamide” value in the test with rats (rats) was “substantial reduction in both the degree and duration of the pharmacological effects”.

Regarding `CCCCCC/C=C\CCCCCCCCCC(N)=O` [Compound 4, Cis-11,12-octadecenoamide], in the test on rats (rats), the “pharmacological effects compared with cis-9,10-octadecenoamide” value was “substantial reduction in both the degree and duration of the pharmacological effects”.

In the case of `CCCCCCCC/C=C\CCCCCCCCCCCC(N)=O` [Compound 6, Erucamide], the “pharmacological effects compared with cis-9,10-octadecenoamide” value in the test on rats (rats) is “substantial reduction in both the degree and duration of the pharmacological effects”.

Consider `CCCCCCCC/C=C\CCCCCCCC(N)=O` [cis-9,10-octadecenoamide, Cis-9,10-octadecenoamide], for which the “time after which subjects were normally active again” value is 1 h in the test on rats (5 mg ip, rats); 2 h in the test with rats (10 mg ip, rats); 2.5 h in the test on rats (20 mg ip, rats); 2.5 h in the test on rats (50 mg ip, rats). Besides, the “duration of the biological effect (sleep-inducing properties)” value with rats (10 mg per rat) is on record as “two”. In addition, the “latency to behavioral sedation following administration” value with rats (ip, rats) was “about 4 minutes”. For the same compound, the “threshold dose for induction of long-lasting motor quiescence, sedated behavior characteristic of normal sleep” value in the test with rats (ip, rats) is recorded as 5 mg. Moreover, the “effect on spontaneous behavior” value in the test with rats (lower doses (1 and 2 mg), ip, rats) is recorded as “no overt effect on spontaneous behavior”. For the same compound, in the test on male Sprague-Dawley rats, the “mean duration of the SWS individual periods” value was “increase”. Moreover, in the test on male Sprague-Dawley rats, the “total time of slow wave sleep (SWS)” value was “increase”.

On to `CCCCCCCC/C=C\CCCCCCCC(=O)O` [oleic acid, Oleic acid, reference compound], for which the overt behavioral effect entry with rats (rats, compared with cis-9,10-octadecenoamide) is reported as “nor oleic acid (5) showed any overt behavioral effect”.

As to `O=S(=O)(F)Cc1ccccc1` [phenylmethylsulfonyl fluoride], in test [1], the “inhibition of the amidase activity (anandamide hydrolysis)” value was “completely inhibited”. Further, the “inhibition of enzymatic activity (hydrolysis of cis-9,10-octadecenoamide to oleic acid)” value in test [2] is listed as “completely inhibited”; in test [2] (listed as PMSF), “inhibited”.
